# Results reported in patent US10633338B2, “Binding Function 3 (BF3) site compounds as therapeutics and methods for their use” (THE UNIVERSITY OF BRITISH COLUMBIA, priority 2014, dated 2020).
# Read-outs that look alike come from different tables or passages of the source.
# How the values were obtained:
# androgen receptor (AR) = molecular target: T1, androgen receptor (AR) (Homo sapiens, UniProt P10275, T878A); assay: eGFP cellular AR transcription assay; format: cell-based
# T1 construct: stably transfected eGFP-expressing LNCaP human prostate cancer cells (LN-ARR2PB-eGFP) containing an androgen responsive probasin-derived promoter; endogenous in cells; host or cells: LNCaP (LN-ARR2PB-eGFP)
# T1 sequence (P10275 1-920 T878A): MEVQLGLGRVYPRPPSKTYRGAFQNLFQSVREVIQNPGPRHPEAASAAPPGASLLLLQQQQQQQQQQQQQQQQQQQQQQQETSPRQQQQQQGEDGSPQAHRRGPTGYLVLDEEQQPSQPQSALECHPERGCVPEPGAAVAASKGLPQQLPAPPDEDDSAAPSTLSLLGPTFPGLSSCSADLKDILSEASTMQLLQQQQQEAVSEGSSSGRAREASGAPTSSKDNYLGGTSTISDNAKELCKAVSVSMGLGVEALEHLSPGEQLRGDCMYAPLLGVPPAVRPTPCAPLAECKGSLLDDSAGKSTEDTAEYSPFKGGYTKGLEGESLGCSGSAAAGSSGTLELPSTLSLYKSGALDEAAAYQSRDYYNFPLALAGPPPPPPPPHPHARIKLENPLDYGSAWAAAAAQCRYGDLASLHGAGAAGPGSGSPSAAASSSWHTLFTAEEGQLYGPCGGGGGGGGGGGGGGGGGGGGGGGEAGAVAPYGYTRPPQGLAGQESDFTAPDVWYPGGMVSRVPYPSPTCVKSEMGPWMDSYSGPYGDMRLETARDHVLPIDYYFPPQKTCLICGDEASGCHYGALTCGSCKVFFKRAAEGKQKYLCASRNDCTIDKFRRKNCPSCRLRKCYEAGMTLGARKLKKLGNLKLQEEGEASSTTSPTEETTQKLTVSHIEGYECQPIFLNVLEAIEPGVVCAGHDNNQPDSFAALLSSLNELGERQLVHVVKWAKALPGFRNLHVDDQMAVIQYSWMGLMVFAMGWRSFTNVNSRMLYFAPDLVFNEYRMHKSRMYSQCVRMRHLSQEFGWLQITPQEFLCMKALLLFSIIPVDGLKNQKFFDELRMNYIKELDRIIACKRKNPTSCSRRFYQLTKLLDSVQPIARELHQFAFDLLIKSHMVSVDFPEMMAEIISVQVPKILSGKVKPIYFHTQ
# How it was run: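 AR transcriptional activity is read as eGFP expression from a probasin-derived androgen-responsive promoter. Compound titrated 0-100 μM in the presence of 0.1 nM R1881; 35,000 cells/well.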
# PSA = assay: Prostate Surface Antigen (PSA) assay, PSA excreted into the media; format: cell-based, human; conditions: same plates as eGFP assay
# Protocol: The evaluation of PSA excreted into the media was performed in parallel to the eGFP assay using the same plates (see above description). After the cells were incubated for 3 days 150 μl of the media was taken from each well, and added to 150 μl of PBS.
# [1] = LN-ARR2PBeGFP LNCaP cells, 0.1 nM R1881, 3 days incubation
# [2] = PSA excreted into media, 3 days incubation
# [3] = LN-ARR2PBeGFP LNCaP cells, 0.1 nM R1881, 3 days incubation, read-out: eGFP IC50
# [4] = Homo sapiens, 72 h, PSA excreted into media, 3 days incubation, read-out: PSA IC50
# [5] = eGFP IC50, LN-ARR2PBeGFP LNCaP cells, 0.1 nM R1881, 3 days incubation
# [6] = LN-ARR2PB-eGFP LNCaP cells, 0.1 nM R1881, 3 days, 0-100 μM compound, read-out: IC50 (eGFP)
# [7] = Homo sapiens, 72 h, media after 3 days, read-out: IC50 (PSA)
# [8] = PSA excreted into media, 3 days incubation, read-out: PSA IC50
# [9] = LN-ARR2PB-eGFP LNCaP cells, 0.1 nM R1881, 3 days, 0-100 μM compound
IC50 (androgen receptor (AR); [3]) [µM],IC50 (PSA; [4]) [µM],Compound,further results
,,Cc1cccc2c(-c3ccc4c(F)cccc4n3)c[nH]c12 [Compound 13623],eGFP IC50 (androgen receptor (AR); [1]): Inactive; PSA IC50 (PSA; [2]): Inactive
1.3,1.59,CN1c2ccccc2C[C@@H]1c1c[nH]c2ccccc12 [Compound 13164-B],
0.7,0.773,Fc1cc2c(-c3ccc4cccc(F)c4n3)c[nH]c2c(F)c1F [Compound 13774],
3.1,7.09,CC1(C)c2ccccc2N(Cc2ccc(O)cc2)C1c1c[nH]c2ccccc12 (centres unmarked) [Compound 13525],
0.77,0.67,CN1c2ccccc2C[C@H]1c1c[nH]c2ccccc12 [Compound 13164-A],
,,Fc1ccc2cc[nH]c2c1Cl [Compound 13725],eGFP IC50 (androgen receptor (AR); [1]): Inactive; PSA IC50 (PSA; [2]): Inactive
,,c1ccc2ncc(-c3c[nH]c4ccncc34)cc2c1 [Compound 13637],eGFP IC50 (androgen receptor (AR); [1]): Inactive; PSA IC50 (PSA; [2]): Inactive
1.66,0.61,Cc1cccc2c(-c3cccnc3)c[nH]c12 [Compound 13655],
,,Cc1ccc2[nH]cc(-c3ccc4ccccc4n3)c2c1 [13 577],IC50 (androgen receptor (AR); [6]): 3.2 µM; IC50 (PSA; [7]): 1.73 µM
,,CC1(C)c2ccccc2NC1c1c[nH]c2ncccc12 (centres unmarked) [13 556],IC50 (androgen receptor (AR); [6]): 2.1 µM; IC50 (PSA; [7]): 2.18 µM
,,Cc1cccc2c(-c3ccc4ncsc4c3)c[nH]c12 [Compound 13757],eGFP IC50 (androgen receptor (AR); [1]): Inactive; PSA IC50 (PSA; [2]): Inactive
,,c1ccc2nc(-c3c[nH]c4ccccc34)ccc2c1 [13 562],IC50 (androgen receptor (AR); [6]): 0.06 µM; IC50 (PSA; [7]): 0.14 µM
,,Cn1ccc2cc(-c3ccc4ccccc4c3)ccc21 [13 756],IC50 (androgen receptor (AR); [6]): 2 µM; IC50 (PSA; [7]): 1.49 µM
,,Cc1cc(F)cc2c(-c3cc(C#N)c4ccccc4n3)c[nH]c12 [Compound 13657],eGFP IC50 (androgen receptor (AR); [1]): Inactive; PSA IC50 (PSA; [2]): Inactive
0.3,0.27,Cc1cccc2c(-c3ccc4ocnc4c3)c[nH]c12 [Compound 13759],
5.2,2.4,O=C(c1cc2cc(F)ccc2[nH]1)N(Cc1ccco1)Cc1ccco1 [Compound 9125],
0.045,0.02,Cc1cccc2c(-c3nc(Br)cs3)c[nH]c12 [Compound 13766],IC50 (androgen receptor (AR); [6]): 0.045 µM; IC50 (PSA; [7]): 0.02 µM
2.2,1.01,C(=C\c1c[nH]c2ccccc12)/c1ccccc1 [Compound 13235],
1.3,1.56,Brc1ccc2c(-c3ccc4ccccc4n3)c[nH]c2c1 [Compound 13568],
,,CNC(=O)c1cccc2nc(-c3c[nH]c4c(C)c(F)ccc34)ccc12 [Compound 13615],eGFP IC50 (androgen receptor (AR); [1]): Inactive; PSA IC50 (PSA; [2]): Inactive
7.3,4.54,Clc1cc(Cl)cc(/N=C/c2c[nH]c3ccccc23)c1 [Compound 13304],
,,CC1(C)c2ccc(Br)cc2NC1c1c[nH]c2c(OCc3ccccc3)cccc12 (centres unmarked) [13 543],IC50 (androgen receptor (AR); [6]): 3.7 µM; IC50 (PSA; [7]): 3.19 µM
2.3,,CC1(C)c2ccccc2NC1c1c[nH]c2ncccc12 (centres unmarked) [Compound 13560],IC50 (PSA; [8]): 7.5 µM
,,COc1ccc(Br)cc1-c1c[nH]c2ccccc12 [Compound 13638],eGFP IC50 (androgen receptor (AR); [1]): Inactive; PSA IC50 (PSA; [2]): Inactive
,,FC(F)(F)c1ccc(-c2c[nH]c3ccccc23)cc1 [13 743],IC50 (androgen receptor (AR); [6]): 0.38 µM; IC50 (PSA; [7]): 0.39 µM
,,Fc1cccc2nc(-c3c[nH]c4c(Cl)cccc34)ccc12 [Compound 13712],eGFP IC50 (androgen receptor (AR); [1]): Inactive; PSA IC50 (PSA; [2]): Inactive
,,Fc1cc(Cl)c2[nH]ccc2c1 [Compound 13721],eGFP IC50 (androgen receptor (AR); [1]): Inactive; PSA IC50 (PSA; [2]): Inactive

IC50 (androgen receptor (AR); [3]) [µM],IC50 (PSA; [4]) [µM],Compound,further results
,,Fc1cc2c(-c3ccc4c(F)cccc4n3)c[nH]c2c(F)c1F [Compound 13751],eGFP IC50 (androgen receptor (AR); [1]): Inactive; PSA IC50 (PSA; [2]): Inactive
1.6,2.12,Cn1cc(-c2cc3ccccc3n2C)c2ccccc21 [Compound 13166],
0.7,,Cc1ccc(/N=N/c2c[nH]c3ccccc23)c(C)c1 [Compound 13225],IC50 (PSA; [8]): 0.9 µM
1.6,2.1,CC1(C)c2ccccc2NC1c1c[nH]c2c(CO)cccc12 (centres unmarked) [Compound 13558],
0.8,0.73,N#C/C(=C\c1ccc(C(F)(F)F)cc1)c1c[nH]c2ccccc12 [Compound 13434],
0.16,0.098,Fc1cc(F)c2[nH]cc(-c3ccc4c(Cl)cccc4n3)c2c1F [Compound 13753],
1.7,2.46,Fc1ccc(Nc2nc3ccccc3[nH]2)cc1Cl [Compound 13145],
,,N#Cc1cc(-c2c[nH]c3cc(F)c(F)cc23)nc2ccccc12 [Compound 13664],eGFP IC50 (androgen receptor (AR); [1]): Inactive; PSA IC50 (PSA; [2]): Inactive
2.5,1.89,Cc1ccc2ccc(-c3c[nH]c4c(C)c(F)ccc34)nc2c1 [Compound 13660],
3.21,4.24,Cc1ccc2[nH]cc(C3Nc4ccccc4C34CCCCC4)c2c1 (centres unmarked) [Compound 13548],
0.38,0.39,FC(F)(F)c1ccc(-c2c[nH]c3ccccc23)cc1 [Compound 13743],
0.6,0.43,Fc1ccc2ccc(-c3c[nH]c4cc(F)c(F)cc34)nc2c1 [Compound 13630],
,,c1ccc2c(Cc3nn[nH]n3)c[nH]c2c1 [13 700],IC50 (eGFP) (androgen receptor (AR); [9]): IC50 (eGFP) = Inactive; IC50 (PSA) (PSA; media after 3 days): IC50 (PSA) = Inactive
,,Fc1ccc2c(-c3ccc4ccccc4n3)c[nH]c2c1 [13 576],IC50 (androgen receptor (AR); [6]): 0.144 µM; IC50 (PSA; [7]): 0.048 µM
,,c1ccc2cc(-c3c[nH]c4cccnc34)ccc2c1 [13 703],IC50 (androgen receptor (AR); [6]): 0.1 µM; IC50 (PSA; [7]): 0.097 µM
4.7,1.6,CC1(C)c2cc(Br)ccc2NC1c1c[nH]c2ccc([N+](=O)[O-])cc12 (centres unmarked) [Compound 13530],
,,Cc1ccc2ccc(-n3ccc4cccc(C)c43)nc2c1 [Compound 13649],eGFP IC50 (androgen receptor (AR); [1]): Inactive; PSA IC50 (PSA; [2]): Inactive
0.029,0.029,Fc1cccc2ccc(-c3c[nH]c4c(F)cccc34)nc12 [Compound 13697],
0.5,0.46,Clc1ccccc1/N=N/c1c[nH]c2ccccc12 [Compound 13255],
,,Cc1cccc2c(-c3ccc4cccnc4c3)c[nH]c12 [13 744],IC50 (androgen receptor (AR); [6]): 0.76 µM; IC50 (PSA; [7]): 0.75 µM
0.4,0.48,CNC(=O)c1cccc2nc(-c3c[nH]c4ccccc34)ccc12 [Compound 13691],
1.7,1.69,C[C@@H]1Cc2ccccc2N1c1nc2ccccc2o1 [Compound 13245],
0.041,0.041,Fc1cccc2c(-c3ccc4cccc(Cl)c4n3)c[nH]c12 [Compound 13698],
,,Fc1cccc2nc(-c3c[nH]c4c(Br)cccc34)ccc12 [Compound 13714],eGFP IC50 (androgen receptor (AR); [1]): Inactive; PSA IC50 (PSA; [2]): Inactive
,,Cc1cccc2c(-c3ccc4scnc4c3)c[nH]c12 [Compound 13758],eGFP IC50 (androgen receptor (AR); [1]): Inactive; PSA IC50 (PSA; [2]): Inactive
,,c1ccc2c(-c3nn[nH]n3)c[nH]c2c1 [13 701],IC50 (eGFP) (androgen receptor (AR); [9]): IC50 (eGFP) = Inactive; IC50 (PSA) (PSA; media after 3 days): IC50 (PSA) = Inactive
0.47,0.47,CNC(=O)c1ccc(Cl)c2nc(-c3c[nH]c4c(F)c(F)c(F)cc34)ccc12 [Compound 13755],

Compound,IC50 (androgen receptor (AR); [3]) [µM],IC50 (PSA; [4]) [µM],further results
c1ccc2nc(-c3n[nH]c4ccccc34)ccc2c1 [Compound 13579],,0.043,IC50 (androgen receptor (AR); [5]): 0.101 µM
Brc1cccc2c(-c3ccc4ccccc4n3)c[nH]c12 [Compound 13582],0.052,0.041,
N#C/C(=C\c1ccc(F)cc1)c1c[nH]c2ccccc12 [Compound 13436],,0.4,IC50 (androgen receptor (AR); [5]): 0.6 µM
